Data set [1] concerns HT-29 human colonic adenocarcinoma cells. As to the kind of experiment: Sulforhodamine B Assay, tumor cell growth inhibition, HT-29. Conditions: for SELECTIVITY INDEX (HT-29 IC50 / PGE2 IC50): ratio of HT-29 IC50 to PGE2 IC50. It counts as cell-based. The protocol: The compounds of this invention were assayed for their effect on various cell lines representative of precancerous lesions to ascertain the degree of tumor growth inhibition following treatment with compounds of this invention. The cell lines employed for these experiments were well characterized, and are used by the United States National Cancer Institute in their screening program for new anti-cancer drugs. Growth inhibition of this cell line is thought to be indicative of a benefit on precancerous lesions and neoplasms.
Tumor cell cytotoxicity was assessed using the Sulforhodamine B Assay. In this assay, tumor cells were plated in 96-well plates and treated with drug-containing media for seven days (continuous exposure). At the end of the exposure period, the cells were fixed and stained with sulforhodamine B (a pink fluorescent dye). The dye was then solubilized, and the optical density of the resulting pink solution determined on a 96-well plate reader. The mean dye intensity of the treated wells was then divided by the mean dye intensity in the control wells (6 wells of each) to determine the effect of the drug on the cells. Dye intensity is proportional to the number of cells or amount of protein per well. The resultant "percent of control" value then represents the degree of growth inhibition caused by the drug.
For each experiment, an IC50 value was determined and used for comparative purposes. This value is equivalent to the concentration of drug needed to inhibit tumor cell growth by 50%. IC50 values were obtained graphically by connecting the mean values for each drug concentration tested. Each experiment included at least six wells per drug concentration. Concentration was plotted on a log scale on the X-axis.

For data set [2], the system named is prostaglandin E2 (PGE2) production by differentiated HL-60 cells (anti-PG synthetase activity). As to the kind of experiment: Inhibition of prostaglandin E2 (PGE2) production in differentiated HL-60 cells after A23187 stimulation (EIA). It counts as cell-based, human. Conditions: for IC50: Table III, differentiated HL-60, A23187 (5×10^-6 M) stimulation, read-out: (Anti-PG Synthetase activity) PGE2 I.C.50. The protocol:
Compounds of this invention, as well as several others (see Table II below), were evaluated to determine whether they inhibited the production of prostaglandin E2 (PGE2), according to the procedure below. […] Secreted […] is measured using an enzyme immunoassay (EIA) kit.
Specifically, HL-60 is a human promyelocytic cell line which may be differentiated in mature granulocytes in the presence of compounds such as dimethyl sulfoxide (DMSO). These cells are obtained from the American Type Culture Collection (ATCC:CCL240).
The differentiated HL-60 cells (3×10^6 cells/ml) are incubated for 15 min at 37° C. in the presence of the compounds listed in Table II at the desired concentration. Cells are then stimulated by A23187 (5×10^-6 M) for 15 min. Secreted PGE2 into the external medium is measured by EIA using a commercially available EIA kit.
The quantity of PGE2 secreted is expressed in ng/10^6 cells using a standard curve. Data are converted using a curve fitting of the four parameter logistic equation: [formula] […] The IC50 values are determined using Hill equation.

A further data set concerns prostaglandin synthesis. Particulars: background; cited from earlier work.
For data set [3] the following is noted: background; prophylactic use / conventional NSAIDs; cited from earlier work.
In another data set the test system is polyps. Particulars: patients; background; cited from earlier work.
The conditions of data set [4]: background; cited from earlier work.
Where [5] appears, read: Homo sapiens, Table II, cell line HT-29, read-out: IC50.
Setting [6] is: Homo sapiens, Table III, HT-29, read-out: (Anti-proliferative activity) HT-29 I.C.50.
Setting [7] is: Table II, cell line HT-29, read-out: IC50.
Where [8] appears, read: Table III, HT-29, read-out: (Anti-proliferative activity) HT-29 I.C.50.

“Also recorded” adds a separate entry of the source. Read-outs that look alike come from different tables or passages of the source.

The values below come from patent US5776962A, “Lactone compounds for treating patient with precancerous lesions” (priority 1995, dated 1998).

As for `CC12OC(=O)CC1(SC[C@H](N)C(=O)O)c1cc(F)ccc1/C2=C\c1ccc(S(C)(=O)=O)cc1` (mixture of isomers) [Example 32, rac-threo-(E)-1-(butan-1',4'-olido)-[3',4':1,2]-6-fluoro-2-methyl-3-(p-methylsulfonylbenzylidene)-1S-indanyl-L-cysteine], in data set [1] (setting [5]), the IC50 was 2100 nM.
For the molecule `CC(=O)N[C@@H](CSC12CC(=O)OC1(C)/C(=C/c1ccc(S(C)(=O)=O)cc1)c1ccc(F)cc12)C(=O)O` (mixture of isomers) [Example 33, rac-threo-(E)-1-(butan-1',4'-olido)-[3',4':1,2]-6-fluoro-2-methyl-3-(p-methylsulfonylbenzylidene)-1S-indanyl-N-acetylcysteine], the IC50 in data set [1] (setting [5]) was 30000 nM.
Turning to `CC12OC(=O)C=C1c1cc(F)ccc1/C2=C\c1ccc(S(C)(=O)=O)cc1` (racemic) [Example 3, rac-(E)-1-(2'-Buten-1',4'-olido)-[3',4':1,2]-6-fluoro-2-methyl-3-(p-methylsulfonylbenzylidene)-indan], the “anti-proliferative activity (in words)” value in data set [1] is listed as “outstanding anti-proliferative activity”. Further, in data set [2], the “anti-PG-synthetase / anti-prostaglandin activity (in words)” value is given as “essentially lacking anti-prostaglandin activity at therapeutic concentrations”.
As to `CC12OC(=O)CC1(O)c1cc(F)ccc1/C2=C\c1ccc(S(C)(=O)=O)cc1` (racemic) [Example 11, rac-threo-(E)-1-Hydroxy-1-(butan-1',4'-olido)-[3',4':1,2]-6-fluoro-2-methyl-3-(p-methylsulfonylbenzylidene)-indan], in data set [1] (Homo sapiens, Table II, cell line HT-29 p 135, read-out: IC50), the IC50 was 100000 nM.
In the case of `CCN(CC)CCSC12CC(=O)OC1(C)/C(=C/c1ccc(S(C)(=O)=O)cc1)c1ccc(F)cc12` (racemic) [Example 12, rac-threo-(E)-1-(N,N'-diethylaminoethanethio)-1-(butan-1',4'-olido)-[3',4':1,2]-6-fluoro-2-methyl-3-(p-methylsulfonylbenzylidene)-indan], the values for the IC50 in data set [1] (setting [6]) and in data set [2] (Homo sapiens) were 430 nM and greater than 100000 nM, respectively. The “SELECTIVITY INDEX (HT-29 IC50 / PGE2 IC50)” value in data set [1] (Table III) is recorded as less than 0.0043.
Regarding `CC12OC(=O)CC1(C#N)c1cc(F)ccc1/C2=C\c1ccc(S(C)(=O)=O)cc1` (racemic) [Example 13, rac-threo-(E)-1-Cyano-1-(butan-1',4'-olido)-[3',4':1,2]-6-fluoro-2-methyl-3-(p-methylsulfonylbenzylidene)-indan], the IC50 in data set [1] (Homo sapiens, Table II, cell line HT-29 p 136 (?), read-out: IC50) is greater than 50000 nM.
Take `CC12OC(=O)C=C1c1cc(F)ccc1/C2=C\c1ccccc1` (racemic) [Example 27, rac-(E)-1-(2'-buten-1',4'-olido)-[3',4':1,2]-6-fluoro-2-methyl-3-benzylidene-indan]: the IC50 in data set [1] (setting [5]) was 340 nM.
Turning to `COc1cc(/C=C2\c3ccc(F)cc3C3=CC(=O)OC32C)cc(OC)c1OC` (racemic) [Example 28, rac-(E)-1-(2'-buten-1',4'-olido)-[3',4':1,2]-6-fluoro-2-methyl-3-(3,4,5-trimethoxybenzylidene)-indan], in data set [1] (setting [5]), the IC50 amounted to 280 nM.
Take `COc1ccc2c(c1)C1=CC(=O)OC1(C)N2C(=O)c1ccc(Cl)cc1` (racemic) [Example 36, rac-3-(2'-Buten-1',4'-olido)-[3',4':3,2]-1-(4-chlorobenzoyl)-5-methoxy-2-methyl-2,3-dihydroindole]: the figures for the IC50 in data set [1] (setting [5]), in data set [1] (setting [6]) and in data set [2] (Homo sapiens) were 2000 nM, 2000 nM and 80 nM, respectively. Further, the “SELECTIVITY INDEX (HT-29 IC50 / PGE2 IC50)” value in data set [1] (Table III) is on record as 25.
On to `C[C@@]12OC(=O)C[C@]1(SCC(=O)O)c1cc(F)ccc1/C2=C\c1ccc(S(C)(=O)=O)cc1` (relative stereo) [Example 31, rac-threo-(E)-1-(butan-1',4'-olido)-[3',4':1,2]-6-fluoro-2-methyl-3-(p-methylsulfonylbenzylidene)-1S-indanyl-mercaptoacetic acid], for which, in data set [1] (setting [5]), the IC50 is 50000 nM.
On to `CCN(CC)CCS[C@]12CC(=O)O[C@@]1(C)N(C(=O)c1ccc(Cl)cc1)c1ccc(OC)cc12` (relative stereo) [Example 37, rac-threo-3-(Butan-1',4'-olido)-[3',4':3,2]-3-(N,N'-diethylaminoethanethio)-1-(4-chlorobenzoyl)-5-methoxy-2-methyl-2,3-dihydroindole], for which the IC50 in data set [1] (setting [5]) was found to be 29000 nM.
Take `CC1=C(CC(=O)O)c2cc(F)ccc2/C1=C\c1ccc(S(C)(=O)=O)cc1` [Sulfone, reference compound]: the “SELECTIVITY INDEX (HT-29 IC50 / PGE2 IC50)” value in data set [1] (Table III) came out at 1.19. For the same molecule, the “inhibition of prostaglandin synthesis (in words)” value with prostaglandin synthesis was “inactive as an inhibitor of prostaglandin synthesis”.
Turning to `CSc1ccc(/C=C2/C(C)=C(CC(=O)O)c3cc(F)ccc32)cc1` [Sulindac Sulfide, reference compound], the “anti-proliferative activity (in words)” value in data set [1] is listed as “good anti-proliferative activity”. Moreover, in data set [2], the “anti-PG-synthetase / anti-prostaglandin activity (in words)” value is reported as “high degree of anti-PG-synthetase activity”. In addition, in data set [2] (Homo sapiens, HL-60, read-out: inhibit PGE2 production), the inhibition at 10 µM amounted to 100%. Further, in the data set with prostaglandin synthesis, the “inhibition of prostaglandin synthesis (in words)” value is reported as “active moiety as a prostaglandin inhibitor”. Further, the “side effects (in words)” value in data set [3] was “associated with the side effects of conventional NSAIDs”.
Take `CC1=C(CC(=O)O)c2cc(F)ccc2/C1=C\c1ccc([S+](C)[O-])cc1` (centres unmarked) [Sulindac]: the “effect on polyps (in words)” value in the data set with polyps is on record as “Polyps virtually disappear”. Moreover, in data set [4], the “metabolism (in words)” value was “converted by liver enzymes to the corresponding sulfide; also recorded: metabolized to sulfone compound”.
On to “rac-ribo-(E)-1-Triazolo-[2',3':1",3"]-1-(butan-1',4'-olido)-[3',4':1,2]-6-fluoro-2-methyl-3-(methylsulfonylbenzylidene)-indan [Example 29]”, for which the IC50 in data set [1] (setting [7]) is 2400 nM; in data set [1] (setting [8]) it was 2400 nM; in data set [2], 1500 nM. Besides, in data set [1] (Table III), the “SELECTIVITY INDEX (HT-29 IC50 / PGE2 IC50)” value is 1.6.
Turning to “rac-threo-(E)-1-(butan-1',4'-olido)-[3',4':1,2]-6-fluoro-2-methyl-3-(p-methylsulfonylbenzylidene)-1S-indanyl-glutathione [Example 34]”, the IC50 was 3600 nM in data set [1] (setting [7]), 3600 nM in data set [1] (setting [8]) and greater than 100000 nM in data set [2]. Further, the “SELECTIVITY INDEX (HT-29 IC50 / PGE2 IC50)” value in data set [1] (Table III) is given as less than 0.036.
For “rac-threo-(E)-1-N,N-Diethylamino-1-(butan-1',4'-olido)-[3',4':1,2]-6-fluoro-2-methyl-3-(p-methylsulfonylbenzylidene)-indan [Example 30]”, the IC50 in data set [1] (setting [7]) is 350 nM; in data set [1] (setting [8]), 350 nM; in data set [2], greater than 100000 nM. Moreover, the “SELECTIVITY INDEX (HT-29 IC50 / PGE2 IC50)” value in data set [1] (Table III) was less than 0.0035.
